Results: US20140031432A1, “TREATMENT OF MITOCHONDRIAL DISEASES WITH VITAMIN K” (Ampere Life Sciences, Inc., priority 2010, published 2014)

Tests used:
Format in all cases: cell-based
[1] = system: Human dermal fibroblasts from Friedreich's ataxia patients; test: Rescue of BSO-stressed FRDA fibroblasts (Example A); details: FRDA fibroblasts (Coriell GM04078), 1 mM BSO, 48 h, Calcein AM viability, read-out: protection against FRDA, EC50
Protocol: (§1) Test samples and solvent controls were tested for their ability to rescue FRDA fibroblasts stressed by addition of L-buthionine-(S,R)-sulfoximine (BSO), as described in Jauslin et al., Hum. Mol. Genet. 11(24):3055 (2002), Jauslin et al., FASEB J. 17:1972-4 (2003), and International Patent Application WO 2004/003565. […] This specific BSO-mediated cell death can be prevented by administration of antioxidants or molecules involved in the antioxidant pathway, such as alpha-tocopherol, selenium, or small molecule glutathione peroxidase mimetics. However, antioxidants differ in their potency, i.e. the concentration at which they are able to rescue BSO-stressed FRDA fibroblasts.
(§2) MEM (a medium enriched in amino acids and vitamins, catalog no. 1-31F24-I) and Medium 199 (M199, catalog no. 1-21F22-I) with Earle's Balanced Salts, without phenol red, were purchased from Bioconcept. Fetal Calf Serum was obtained from PAA Laboratories. Basic fibroblast growth factor and epidermal growth factor were purchased from PeproTech. Penicillin-streptomycin-glutamine mix, L-buthionine (S,R)-sulfoximine, and insulin from bovine pancreas were purchased from Sigma. Calcein AM was purchased from Molecular Probes. Cell culture medium was made by combining 125 ml M199 EBS, 50 ml Fetal Calf Serum, 100 U/ml penicillin, 100 μg/ml streptomycin, 2 mM glutamine, 10 μg/ml insulin, 10 ng/ml EGF, and 10 ng/ml bFGF; MEM EBS was added to make the volume up to 500 ml. A 10 mM BSO solution was prepared by dissolving 444 mg BSO in 200 ml of medium with subsequent filter-sterilization. During the course of the experiments, this solution was stored at +4° C. The cells were obtained from the Coriell Cell Repositories (Camden, N.J.; repository number GM04078) and grown in 10 cm tissue culture plates. Every third day, they were split at a 1:3 ratio. […]
(§3) 100 μl of PBS containing 1.2 μM Calcein AM were then added to each well. […] After that time the PBS was discarded, the plate gently tapped on a paper towel and fluorescence (excitation/emission wavelengths of 485 nm and 525 nm, respectively) was read on a Gemini fluorescence reader. […]

[2] = system: human dermal fibroblasts from LHON patients; test: Rescue of fibroblasts from LHON patients from oxidative stress (Example C); details: Fibroblast, LHON cells (Coriell GM03858), screen as in Example A (BSO stress), read-out: protection against LHON, EC50
Protocol: [The source words this procedure for another cell line and reports this cell line under the same test.] as §1
(§4) MEM (a medium enriched in amino acids and vitamins, catalog no. 1-31F24-I) and Medium 199 (M199, catalog no. 1-21F22-I) with Earle's Balanced Salts, without phenol red, were purchased from Bioconcept. Fetal Calf Serum was obtained from PAA Laboratories. Basic fibroblast growth factor and epidermal growth factor were purchased from PeproTech. […]
as §3

[3] = system: human dermal fibroblasts from Parkinson's disease patients; test: Rescue of fibroblasts from Parkinson's disease patients from oxidative stress (Example D); details: Fibroblast, Parkinson's disease cells (Coriell AG20439), screen as in Example A (BSO stress), read-out: protection against PD, EC50
Protocol: [The source words this procedure for another cell line and reports this cell line under the same test.] as §1, §4, §3

[4] = system: human dermal fibroblasts from Huntington's patients; test: Rescue of fibroblasts from Huntington's patients from oxidative stress (Example B); details: Fibroblast, Huntington's cells (Coriell GM 04281), screen as in Example A (BSO stress), read-out: protection against Huntington's, EC50
Protocol: [The source words this procedure for another cell line and reports this cell line under the same test.] as §1, §2, §3

Row | Structure (SMILES) | EC50 [1] [nM] | EC50 [2] [nM] | EC50 [3] [nM] | EC50 [4] [nM]
1 | CC1=CC(=O)c2ccccc2C1=O [2-methylnaphthalene-1,4-dione] | < 1000 | < 300 | < 500 | < 500
2 | CC(C)=CCCC(C)=CCC1=C(C)C(=O)c2ccccc2C1=O [2-(3,7-dimethylocta-2,6-dien-1-yl)-3-methylnaphthalene-1,4-dione] | < 1000 | < 300 | < 500 | < 500
3 | CC(C)=CCC/C(C)=C/CC/C(C)=C/CC/C(C)=C/CC1=C(C)C(=O)c2ccccc2C1=O [2-methyl-3-[3,7,11,15-tetramethylhexadeca-2,6,10,14-tetraen-1-yl]naphthoquinone] | < 1000 | – | – | < 500
